Test: Solubility of the OSC small molecule and binder in aromatic hydrocarbon and further solvents
Type: physicochemical
Excerpt: The aromatic hydrocarbon solvent of the multi-solvent formulation is capable of dissolving at least 0.5% by weight of the polycrystalline small molecule of the present invention, more preferably greater than 1%.
The further (subsidiary) solvent(s) are preferably less solubilising of the polycrystalline small molecule and typically dissolve less than 0.2% by weight of the small molecule OSC, more preferably less than 0.1% by weight, more preferably less than 0.05% by weight.
Preferably, the semiconducting binder of the invention is essentially insoluble in the further solvent.

## CC[Si](C#Cc1c2cc3c(C)ccc(C)c3cc2c(C#C[Si](CC)(CC)CC)c2cc3c(C)ccc(C)c3cc12)(CC)CC [1,4,8,11-tetramethyl, 6,13-bis-(triethylsilylethynyl)pentacene]
In 2-Bromomesitylene
  Solubility: 1.4% w/v
In Bromobenzene
  Solubility: 3.5% w/v
In Cyclohexane
  Solubility: <0.1%
In Mesitylene
  Solubility: ~1% w/v
In Methyl ethyl ketone (MEK)
  Solubility: Insol.
In Propan-2-ol
  Solubility: Insol.
In Tetralin
  Solubility: 0.6% w/v
In n-Heptane
  Solubility: <0.1%
In n-Octane
  Solubility: <0.1%
